Values joined by “and” are separate entries in the source; they are usually repeats but may differ in a detail not shown here. Identical values can stand only once. Like-named read-outs stand apart in the source and are kept apart here.
Tests used:
[1] = target: T1, SSAO activity of VAP-1 transfected CHO cells (Homo sapiens, UniProt Q16853); assay: Fluorometric detection of SSAO-mediated H2O2 formation (Amplex Red); format: cell-based; conditions: for Inhibition of SSAO activity (controls): 1 mg/ml, VAP-1 transfected CHO cells
T1 construct: expressed in transfected cells; host or cells: CHO cells
T1 sequence (Q16853 1-763): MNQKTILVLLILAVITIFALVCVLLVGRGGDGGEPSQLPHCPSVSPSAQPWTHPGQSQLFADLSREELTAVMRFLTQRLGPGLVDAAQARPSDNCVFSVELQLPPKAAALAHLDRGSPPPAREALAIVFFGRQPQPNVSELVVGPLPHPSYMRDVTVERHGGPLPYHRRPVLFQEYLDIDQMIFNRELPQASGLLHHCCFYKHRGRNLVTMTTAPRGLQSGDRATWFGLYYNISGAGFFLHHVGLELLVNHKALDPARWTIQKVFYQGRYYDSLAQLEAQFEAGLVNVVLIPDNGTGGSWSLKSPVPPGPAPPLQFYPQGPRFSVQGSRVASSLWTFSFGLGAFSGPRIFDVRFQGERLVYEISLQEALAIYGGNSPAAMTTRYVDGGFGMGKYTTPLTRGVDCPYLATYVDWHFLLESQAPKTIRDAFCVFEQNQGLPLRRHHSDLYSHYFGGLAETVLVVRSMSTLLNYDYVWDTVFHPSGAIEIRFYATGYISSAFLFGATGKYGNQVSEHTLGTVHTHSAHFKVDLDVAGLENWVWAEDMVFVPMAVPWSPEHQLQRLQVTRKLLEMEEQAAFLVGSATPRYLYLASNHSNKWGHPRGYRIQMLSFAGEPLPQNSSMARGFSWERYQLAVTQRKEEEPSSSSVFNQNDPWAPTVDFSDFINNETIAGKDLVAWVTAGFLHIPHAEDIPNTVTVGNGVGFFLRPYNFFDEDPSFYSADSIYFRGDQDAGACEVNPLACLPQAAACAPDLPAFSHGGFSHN
Method: Molecular Probes Europe BV), a highly sensitive and stable probe for H2O2. […] Catalytic reaction was initiated by addition of benzylamine as substrates and H2O2-detecting mixture containing horseradish peroxidase (final concentration 0.8 U/ml) and Amplex Red reagent (60 μM). The plates were incubated for 1-2 hours at 37° C. in the final volume of 250 μl, the bathing medium was clarified by centrifugation and placed in aliquots (200 μl) into white non-phosphorescent microplates (Cliniplate). Fluorescence intensity of the samples was measured (excitation, 545 nm; emission, 590 nm; Tecan ULTRA fluoropolarometer) and H2O2 concentration was calculated from calibration curves generated by serial dilutions of either standard H2O2 or resorufin, the product of the Amplex Red reaction (Molecular Probes).

[2] = target: T2, amine oxidase, copper containing 3 (AOC3) (Homo sapiens, UniProt Q16853); assay: Enzyme inhibiting activity of FP-1113 versus thiamine (FIG. 3)
T2 sequence (Q16853 1-763): T1 sequence (Q16853 1-763)
Method: The enzyme inhibiting activity was tested as described above.

serum VAP-1/SSAO [3] = target: serum VAP-1/SSAO (Homo sapiens, UniProt Q16853)
Method: Amine oxidase activity was assayed radiochemically using [7-^14C]-benzylamine hydrochloride (spec. act. 57 mCi/mmol, Amersham) as a substrate and 25 microliters of serum. […] Potential inhibition of serum VAP-1/SSAO enzymatic activity was measured in presence of indicated concentrations of thiamine. Finally, enzymatic activity of serum VAP-1/SSAO of six volunteers was measured before and after eating vitamin B1 100 mg/day for 5 to 9 days. Similarly serum VAP-1/SSAO activity of four volunteers eating benfothiamine 200 mg/day for four days was measured.

serum VAP-1/SSAO [4] = target: T3, serum VAP-1/SSAO (Homo sapiens, UniProt Q16853); assay: Serum VAP-1/SSAO enzymatic activity of volunteers before and after oral intake
T3 sequence (Q16853 27-763 limits assumed): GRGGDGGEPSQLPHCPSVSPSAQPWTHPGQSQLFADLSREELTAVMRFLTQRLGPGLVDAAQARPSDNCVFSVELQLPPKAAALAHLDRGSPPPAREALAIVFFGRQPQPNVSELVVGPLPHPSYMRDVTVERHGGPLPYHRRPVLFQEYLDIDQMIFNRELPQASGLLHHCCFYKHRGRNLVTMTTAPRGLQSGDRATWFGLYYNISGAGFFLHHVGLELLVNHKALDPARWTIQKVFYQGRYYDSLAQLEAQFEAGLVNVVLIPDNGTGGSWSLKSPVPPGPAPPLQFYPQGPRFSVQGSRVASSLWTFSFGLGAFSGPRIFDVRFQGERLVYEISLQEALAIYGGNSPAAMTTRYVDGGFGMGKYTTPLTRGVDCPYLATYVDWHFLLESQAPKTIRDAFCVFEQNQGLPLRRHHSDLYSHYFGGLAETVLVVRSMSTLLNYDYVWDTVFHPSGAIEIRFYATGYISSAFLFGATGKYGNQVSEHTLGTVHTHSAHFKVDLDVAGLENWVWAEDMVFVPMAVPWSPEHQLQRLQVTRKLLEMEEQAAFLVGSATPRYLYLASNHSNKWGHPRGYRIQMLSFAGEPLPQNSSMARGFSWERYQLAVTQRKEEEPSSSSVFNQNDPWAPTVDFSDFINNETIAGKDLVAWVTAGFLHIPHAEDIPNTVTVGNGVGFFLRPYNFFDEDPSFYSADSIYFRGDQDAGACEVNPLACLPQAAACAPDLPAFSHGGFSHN

mice [5] = assay: Glycosylated hemoglobin (HbAlc) in blood of fasted mice; format: in vivo; conditions: oral methylamine supplementation, 57-59 week old mice
Method: The increases in blood glucose over fasting blood glucose levels at 30, 60, 90, and 120 minutes after glucose challenge (2.0 g IP glucose/kg body weight) are expressed as mean+SEM. (A) Glucose challenge of 26 week old non-transgenic (open symbols) and mTIEhVAP-1 transgenic mice (filled symbols) with normal tap water (solid lines) or with methylamine supplemented water (dashed lines). Significant effects on the rate of glucose clearance were identified by comparing the areas under the curve (AUC) of individual mice with an ANOVA (methylamine p=0.0002 and methylamine/transgene interaction p=0.046) and by comparing glucose levels at individual time points with unpaired Student's t-tests (asterisks, p<0.01 versus non-transgenic mice with normal water; crosses, p<0.02 versus non-transgenic mice with methylamine). (B) Glucose challenge of 10-12 week old transgenic mice with normal tap water (solid line) followed by 16 days of treatment with methylamine supplemented water (squares and dashed lines), and methylamine supplemented water as well as SSAO inhibitor injections (triangles and dashed lines). […] (C) The mean±SEM percent of glycosylated hemoglobin (HbAlc) was determined from the blood of fasted, 57-59 week old non-transgenic (white bars) and transgenic (black bars) mice with (gray strips) or without oral methylamine supplementation. […]

mice [6] = assay: Systolic arterial blood pressure and heart rate, tail cuff method; format: in vivo; conditions: methylamine supplementation
Method: Systolic arterial blood pressure and heart rate were measured in all of the groups using the tail cuff method. […] A trend for elevated blood pressure was also found with the transgene alone.

mice [7] = assay: Aorta surface area positive for Oil Red O staining (atherosclerosis); format: in vivo; conditions: methylamine supplementation, versus untreated controls
Method: The percentage of aorta surface area positive for Oil Red O staining was determined for the mice in each group.

[8] = tested on: mTIEhVAP-1 transgenic mice; assay: Glucose challenge of mTIEhVAP-1 transgenic and non-transgenic mice; format: in vivo; conditions: methylamine supplemented water; 2.0 g IP glucose/kg
Method: The increases in blood glucose over fasting blood glucose levels at 30, 60, 90, and 120 minutes after glucose challenge (2.0 g IP glucose/kg body weight) are expressed as mean±SEM. FIG. 1A: Glucose challenge of 26 week old non-transgenic (open symbols) and mTIEhVAP-1 transgenic mice (filled symbols) with normal tap water (solid lines) or with methylamine supplemented water (dashed lines). FIG. 1B: Glucose challenge of 10-12 week old transgenic mice with normal tap water (solid line) followed by 16 days of treatment with methylamine supplemented water (squares and dashed lines), and methylamine supplemented water as well as SSAO inhibitor injections (triangles and dashed lines). FIG. 1C: The mean±SEM percent of glycosylated hemoglobin (HbAlc) was determined from the blood of fasted, 57-59 week old non-transgenic (white bars) and transgenic (black bars) mice with (gray strips) or without oral methylamine supplementation. […]
The increases in blood glucose over fasting blood glucose levels at 30, 60, 90, and 120 minutes after glucose challenge (2.0 g IP glucose/kg body weight) are expressed as mean+SEM. […] (C) The mean±SEM percent of glycosylated hemoglobin (HbAlc) was determined from the blood of fasted, 57-59 week old non-transgenic (white bars) and transgenic (black bars) mice with (gray strips) or without oral methylamine supplementation. […]

[9] = volunteers, 100 mg/day for 5 to 9 days

penicillin
Inhibition of SSAO activity (controls) [1]: did not inhibit the activity

Cc1c(CCO)sc[n+]1Cc1ccccc1N.Cl.[Cl-] [FP-1113, 3-(2-aminobenzyl)-5-(2-hydroxyethyl)-4-methyl-thiazolium Chloride Hydrochloride]
SSAO inhibition compared with thiamine [2]: stronger SSAO-inhibitor than thiamine

Cc1ncc(C[n+]2csc(CCO)c2C)c(N)n1 [Thiamine, thiamine]
Decrease of serum VAP-1/SSAO activity in vitro (serum VAP-1/SSAO [3]; 1 mg/ml): 87% | Decrease of serum VAP-1/SSAO activity in vitro (serum VAP-1/SSAO [3]; 200 micrograms/ml): 32% | Decrease of serum VAP-1/SSAO activity in vitro (serum VAP-1/SSAO [3]; 400 micrograms/ml): 39% | Decrease of serum VAP-1/SSAO activity in vitro (serum VAP-1/SSAO [3]; 800 micrograms/ml): 70% | Decrease of VAP-1 enzyme activity at the end of the experiment, mean of responders (serum VAP-1/SSAO [4]; [9]): 19% | Volunteers responding (serum VAP-1/SSAO [4]; [9]): Four of the six volunteers responded | Decrease of VAP-1 enzyme activity at the end of the experiment, individual responders (serum VAP-1/SSAO [4]; volunteers, 100 mg/day for 5 to 9 days, listed as vitamin B1): 25% and 2% and 32% and 16% | inhibition at 63 µg/mL ([1]; CHO, thiamine 63 μg/ml, VAP-1 transfected cells): 10.5 ± 8.5% | inhibition at 125 µg/mL ([1]; CHO, thiamine 125 μg/ml, VAP-1 transfected cells): 26.5 ± 11% | inhibition at 175 µg/mL ([1]; CHO, thiamine 175 μg/ml, VAP-1 transfected cells): 35.5 ± 2.5% | inhibition at 250 µg/mL ([1]; CHO, thiamine 250 μg/ml, VAP-1 transfected cells): 42 ± 2% | inhibition at 375 µg/mL ([1]; CHO, thiamine 375 μg/ml, VAP-1 transfected cells): 47 ± 9% | inhibition at 500 µg/mL ([1]; CHO, thiamine 500 μg/ml, VAP-1 transfected cells): 61.5 ± 2.5%

CN [methylamine]
HbAlc levels (mice [5]): decreased | Heart rate (mice [6]): did not affect heart rate | Systolic arterial blood pressure (mice [6]): significantly elevated blood pressure | Percentage of lesion formation in aorta (mice [7]): increased the percentage of lesion formation | Glucose tolerance after glucose challenge [8]: enhance glucose tolerance

CC1(C)S[C@@H]2[C@H](NC(=O)[C@H](N)c3ccccc3)C(=O)N2[C@H]1C(=O)O [ampicillin]
Inhibition of SSAO activity (controls) [1]: did not inhibit the activity

C/C(=C(\CCOP(=O)(O)O)SC(=O)c1ccccc1)N(C=O)Cc1cnc(C)nc1N [benfothiamine, benfotiamine]
Decrease of SSAO activity, each individual (serum VAP-1/SSAO [4]; four volunteers, 200 mg/day for four days): 9% and 24% and 8% and 27%
